Measurements as given in PMC5519534, “AM-37 and ST-36 Are Small Molecule Bombesin Receptor Antagonists” (Frontiers in Endocrinology, 2017).
Marks after values point to notes of the source that are not given here. Where a SMILES comes first, the peptide text is derived from it. [ ]: non-standard residue; d: D form. Nle = CCCC[C@H](N)C(=O)O; βAla = NCCC(=O)O

Legend:
[1] = biological target: T1, BB1R (Homo sapiens, UniProt P28336); assay: Cytosolic Ca2+ (Fura-2AM) in NCI-H1299 cells transfected with BB1R; format: cell-based
T1 construct: expressed in transfected cells; host or cells: NCI-H1299
T1 sequence (P28336 whole entry): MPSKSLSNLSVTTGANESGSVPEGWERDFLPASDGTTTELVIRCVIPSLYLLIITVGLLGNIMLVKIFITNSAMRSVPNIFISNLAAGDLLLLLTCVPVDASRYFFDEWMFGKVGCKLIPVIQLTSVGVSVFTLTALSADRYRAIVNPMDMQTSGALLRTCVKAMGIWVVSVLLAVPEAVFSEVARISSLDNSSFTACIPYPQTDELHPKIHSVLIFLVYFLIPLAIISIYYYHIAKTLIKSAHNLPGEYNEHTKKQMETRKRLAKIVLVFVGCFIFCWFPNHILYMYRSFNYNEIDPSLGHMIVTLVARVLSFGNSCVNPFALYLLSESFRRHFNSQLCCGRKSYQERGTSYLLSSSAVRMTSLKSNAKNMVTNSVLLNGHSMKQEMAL
Description: (§1) Non-small cell lung cancer cell line NCI-H1299 (ATCC, Manassas, VA, USA) was stably transfected with BB1R, BB2R, and BRS-3. The transfected cells were grown in RPMI-1640 containing 10% fetal bovine serum (FBS) with 0.3 mg/ml geneticin (Invitrogen, Grand Island, NY, USA). The transfected cells, which contained approximately 100,000 receptors/cell, were weekly split using trypsin/EDTA ([13]). In addition, lung cancer cell lines NCI-H727, H1299, and H1975 were purchased from ATCC and cultured in RPMI-1640, which contained 10% FBS. The cell types were derived from different human biopsy specimens. These studies were approved by the NIDDK biospecimens and biosafety committees.
(§2) The ability of AM-37, ST-36, AM-13, and AM-14 to function as BBR antagonists was investigated. NSCLC cells transfected with BB1R, BB2R, and BRS-3 were harvested and loaded with Fura-2AM (Calbiochem, La Jolla, CA, USA) as described previously ([16]). The excitation ratio was determined at 340 and 380 nm with an emission wavelength of 510 nm.

[2] = biological target: T2, BB2R (Homo sapiens, UniProt P30550); assay: Cytosolic Ca2+ (Fura-2AM) in NCI-H1299 cells transfected with BB2R; format: cell-based
T2 construct: expressed in transfected cells; host or cells: NCI-H1299
T2 sequence (P30550 whole entry): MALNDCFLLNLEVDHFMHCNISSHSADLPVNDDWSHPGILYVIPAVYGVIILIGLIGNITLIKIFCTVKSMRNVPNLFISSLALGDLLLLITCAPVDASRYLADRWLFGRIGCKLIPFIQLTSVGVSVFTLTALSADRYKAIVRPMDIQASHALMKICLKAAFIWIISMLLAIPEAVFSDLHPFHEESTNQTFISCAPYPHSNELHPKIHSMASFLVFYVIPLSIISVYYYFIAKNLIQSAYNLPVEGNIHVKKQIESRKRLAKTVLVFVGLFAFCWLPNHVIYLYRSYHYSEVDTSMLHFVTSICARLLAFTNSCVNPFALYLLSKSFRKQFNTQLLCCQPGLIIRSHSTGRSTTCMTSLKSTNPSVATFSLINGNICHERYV
Description: as §1, §2

[3] = biological target: T3, BRS-3 (Homo sapiens, UniProt P32247); assay: Cytosolic Ca2+ (Fura-2AM) in NCI-H1299 cells transfected with BRS-3; format: cell-based
T3 construct: expressed in transfected cells; host or cells: NCI-H1299
T3 sequence (P32247 1-399): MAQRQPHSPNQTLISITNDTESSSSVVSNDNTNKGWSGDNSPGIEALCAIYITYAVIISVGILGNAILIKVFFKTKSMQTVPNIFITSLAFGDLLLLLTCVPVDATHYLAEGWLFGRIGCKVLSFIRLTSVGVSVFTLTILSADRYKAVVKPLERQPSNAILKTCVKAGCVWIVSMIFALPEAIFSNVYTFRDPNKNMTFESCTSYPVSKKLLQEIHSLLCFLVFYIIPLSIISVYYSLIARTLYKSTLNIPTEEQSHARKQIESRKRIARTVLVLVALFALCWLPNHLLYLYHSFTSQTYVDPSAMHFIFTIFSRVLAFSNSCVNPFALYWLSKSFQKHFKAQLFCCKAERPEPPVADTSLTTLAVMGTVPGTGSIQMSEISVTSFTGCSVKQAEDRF
Description: as §1, §2

[4] = tested on: EGFR; assay: EGFR tyrosine phosphorylation by western blot, NCI-H1299 cells transfected with BB2R; format: cell-based, human
Description: (§3) The tyrosine phosphorylation of the EGFR and ERK was investigated by western blot. NSCLC cells transfected with BB1R, BB2R, and BRS-3 were placed in 10 cm dishes. When the cells were confluent, they were placed in SIT medium (RPMI-1640 containing 3 × 10^−8 M sodium selenite, 5 µg/ml bovine insulin, and 10 µg/ml apo-transferrin; Sigma-Aldrich, St. Louis, MO, USA) for 3 h. […] Cell extracts were made as described previously ([16]), and 600 µg of protein extract was immunoprecipitated with 4 µg anti-phosphotyrosine antibody (Becton Dickenson, USA). The immunoprecipitates were fractionated using a 4–20% polyacrylamide gel (Novex, San Diego, CA, USA). Proteins were transferred to a nitrocellulose membrane and incubated with 2 µg anti-EGFR or anti-ERK antibody (Cell Signaling Technologies, Danvers, MA, USA). After washing the blot, it was incubated with enhanced chemiluminescence detection reagent (Thermo Scientific) for 5 min and exposed to Biomax XAR film (Carestream, Rochester, NY, USA). The band intensity was determined using a Kodak image station 440 densitometer. Alternatively, 20 µg of protein extract was loaded onto polyacrylamide gels and after transfer to nitrocellulose, the blot was probed with anti-PY^1,068-EGFR, anti-EGFR, anti-PY^204ERK, or anti-ERK (Cell Signaling Technologies, Danvers, MA, USA).

[5] = tested on: ERK; assay: ERK tyrosine phosphorylation by western blot, NCI-H1299 cells transfected with BB2R; format: cell-based, human
Description: as §3

[6] = biological target: T1, BB1R; assay: Inhibition of specific 125I-BA1 binding to BB1R-transfected NCI-H1299 cells
Description: as §1
(§4) The ability of AM-37, ST-36, AM-13, and AM-14 to inhibit specific ^125I-BA1 binding to NSCLC cells transfected stably with BB1R, BB2R, and BRS-3 was investigated. NSCLC cells were placed in 24 well plates. When confluent, the cells were washed three times with PBS. The cells were incubated with binding buffer (PBS containing 0.25% bovine serum albumin and 0.025% bacitracin, Sigma-Aldrich, St. Louis, MO, USA). Various concentrations of AM-37, ST-36, AM-13, or AM-14 were added to the cells for 10 min, followed by 100,000 cpm of ^125I-BA1 (0.16 nM) and incubated at 37°C for 30 min when equilibrium of binding was reached. The cells were rinsed three times with binding buffer for 2 min at 4°C. The cells that contained bound peptide dissolved in 0.2 N NaOH and counted in a Wallac 1470 γ-counter. The Ki was calculated as described ([15]).

[7] = biological target: T2, BB2R; assay: Inhibition of specific 125I-BA1 binding to BB2R-transfected NCI-H1299 cells
Source text: Non-small cell lung cancer cell line NCI-H1299 (ATCC, Manassas, VA, USA) was stably transfected with BB1R, BB2R, and BRS-3. […] The transfected cells, which contained approximately 100,000 receptors/cell, were weekly split using trypsin/EDTA ([13]). […] The cell types were derived from different human biopsy specimens. These studies were approved by the NIDDK biospecimens and biosafety committees.
NSCLC cells were placed in 24 well plates. When confluent, the cells were washed three times with PBS. […] The cells were rinsed three times with binding buffer for 2 min at 4°C. […] The Ki was calculated as described ([15]).

[8] = biological target: T3, BRS-3; assay: Inhibition of specific 125I-BA1 binding to BRS-3-transfected NCI-H1299 cells
Description: as §1, §4

[9] = biological target: T4, NTR (Homo sapiens, UniProt P30989); assay: Neurotensin-induced cytosolic Ca2+ in NSCLC cells (specificity); format: cell-based; conditions: 10 nM neurotensin
T4 construct: endogenous in cells; host or cells: NCI-H1299 (transfected with bombesin receptors)
T4 sequence (P30989 whole entry): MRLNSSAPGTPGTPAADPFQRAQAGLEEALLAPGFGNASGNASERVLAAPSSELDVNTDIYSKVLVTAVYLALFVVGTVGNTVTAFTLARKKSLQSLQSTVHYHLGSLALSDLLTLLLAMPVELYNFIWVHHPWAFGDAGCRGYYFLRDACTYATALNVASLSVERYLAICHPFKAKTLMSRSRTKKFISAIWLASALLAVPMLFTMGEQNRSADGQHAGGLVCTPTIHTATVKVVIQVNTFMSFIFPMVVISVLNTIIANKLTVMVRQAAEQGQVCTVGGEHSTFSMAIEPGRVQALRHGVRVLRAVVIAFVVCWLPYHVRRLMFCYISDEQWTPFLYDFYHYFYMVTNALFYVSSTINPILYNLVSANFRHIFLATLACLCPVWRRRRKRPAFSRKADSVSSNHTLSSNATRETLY

[10] = tested on: NCI-H1299 cells; assay: MTT proliferation assay, NCI-H1299; format: cell-based, human; conditions: Homo sapiens, NCI-H1299, 48 h; MTT, 2 days, SIT medium
Description: The proliferation of NSCLC cells was investigated using the 3-(4,5-demethylthiazol-2-yl)-[…]-2H-tetrazolium bromide (MTT) assay as described previously ([16]). NCI-H727, H1299, and H1975 cells were placed in SIT medium and varying concentration of AM-37, ST-36, AM-13, or AM-14 added. After 2 days, 0.1% MTT solution (15 µl) was added. After 4 h, DMSO (150 µl) was added and the absorbance at 570 nm was determined.

[11] = tested on: NSCLC cells; assay: Ionomycin-induced cytosolic Ca2+ in NSCLC cells (specificity); format: cell-based, human; conditions: 5 µg/ml
Description: as §2

[12] = 100 nM BA1, relative to control
[13] = 30 µM small molecule followed by 10 nM BA1
[14] = 10 µM pretreatment, then 100 nM BA1

CCCC[C@H](NC(=O)[C@H](Cc1ccccc1)NC(=O)[C@H](Cc1c[nH]cn1)NC(=O)CCNC(=O)[C@@H](NC(=O)[C@H](C)NC(=O)[C@H](Cc1c[nH]c2ccccc12)NC(=O)[C@H](CCC(N)=O)NC(=O)[C@H](N)Cc1ccc(O)cc1)C(C)C)C(N)=O [BA1, (D-Tyr^6, β-Ala^11, Phe^13, Nle^14)BB^6–14, reference compound] (H-[dY]QWAV[βAla]HF[Nle]-NH2; N-terminus and C-terminus assumed)
Cytosolic Ca2+ reached after BA1 ([1]; 10 nM BA1, from 160 nM, within seconds, Figure 2A): 178 nM
Increase in cytosolic Ca2+, BB1R ([1]; BA1 10 nM alone): 18.5 ± 1.1 nM
Cytosolic Ca2+ reached after BA1 ([2]; 10 nM BA1, from 160 nM, Figure 2D): 186 nM
Increase in cytosolic Ca2+, BB2R ([2]; BA1 10 nM alone): 26.3 ± 1.7 nM
Cytosolic Ca2+ reached after BA1 ([3]; 10 nM BA1, from 170 nM, Figure 2G): 194 nM
Increase in cytosolic Ca2+, BRS-3 ([3]; BA1 10 nM alone): 24.4 ± 2.3 nM
EGFR tyrosine phosphorylation [4, 12]: 326%
ERK tyrosine phosphorylation [5, 12]: 277%

COc1ccc(NC(=O)N[C@@H](Cc2c[nH]c3ccccc23)C(=O)NCC2(c3cccnc3)CCCCC2)cc1 [ST-36]
Ki [6]: 7.9 ± 0.9 µM
IC50 [7]: 6.9 µM
Ki ([7]; inhibition of specific 125I-BA1 binding, BB2R-transfected NCI-H1299 cells): 6.9 ± 0.3 µM
IC50 [8]: 10.8 µM
Ki ([8]; inhibition of specific 125I-BA1 binding, BRS-3-transfected NCI-H1299 cells): 10.8 ± 0.9 µM
Increase in cytosolic Ca2+, BB1R [1, 13]: 0^a nM
Increase in cytosolic Ca2+, BB2R [2, 13]: 0^a nM
Effect on the increase in cytosolic Ca2+ caused by BA1 ([2]; 30 µM, 10 nM BA1, BB2R-transfected cells): blocked
Effect on basal cytosolic Ca2+ ([2]; 30 µM, BB2R-transfected cells): no effect
Increase in cytosolic Ca2+, BRS-3 [3, 13]: 0^a nM
Effect on the increase in cytosolic Ca2+ caused by BA1 ([3]; 30 µM, 10 nM BA1, BRS-3-transfected cells): blocked
Effect on basal cytosolic Ca2+ ([3]; 30 µM, BRS-3-transfected cells): no effect
Effect on the ability of NT to increase cytosolic Ca2+ [9]: no effect
Effect of pretreatment on BA1-induced EGFR tyrosine phosphorylation [4, 14]: addition of BA1 had little effect
Effect of pretreatment on BA1-induced ERK tyrosine phosphorylation [5, 14]: decreased significantly
IC50 [10]: 22 µM

C[C@H](CCC(=O)O)C[C@H](C)C[C@H](C)C(=O)/C=C(\O)[C@H](C)C[C@H](C)C/C=C/[C@@H](C)[C@@H](O)[C@@H](C)[C@@H](O)C[C@@H]1CC[C@@](C)([C@H]2CC[C@@](C)([C@@H](C)O)O2)O1 [ionomycin, reference compound]
Effect on cytosolic Ca2+ [11]: strongly increased
